Values quoted from earlier work as cited in PMC12067350, “Discovery of Thieno[3,2‑b]pyridine-5-carboxamide and 2,3-Difluorobenzamide Negative Allosteric Modulators of Metabotropic Glutamate Receptor Subtype 5” (ACS Medicinal Chemistry Letters, 2025).

Columns and labels:
[1] = set-up: method as in PMID 28530802; settings: NHP, 28-day study, AO metabolite accumulated after 14 days, nonmechanism based; cited from earlier work
[2] = set-up: method as in PMID 30446311; settings: cited from earlier work
[3] = cited from earlier work
[4] = target: T1, human mGlu5 (Homo sapiens, UniProt P41594); settings: previously published picolinamide series; read-out: hmGlu5 IC50; cited from earlier work
T1 construct: expressed in transfected cells
T1 sequence (P41594 21-1212): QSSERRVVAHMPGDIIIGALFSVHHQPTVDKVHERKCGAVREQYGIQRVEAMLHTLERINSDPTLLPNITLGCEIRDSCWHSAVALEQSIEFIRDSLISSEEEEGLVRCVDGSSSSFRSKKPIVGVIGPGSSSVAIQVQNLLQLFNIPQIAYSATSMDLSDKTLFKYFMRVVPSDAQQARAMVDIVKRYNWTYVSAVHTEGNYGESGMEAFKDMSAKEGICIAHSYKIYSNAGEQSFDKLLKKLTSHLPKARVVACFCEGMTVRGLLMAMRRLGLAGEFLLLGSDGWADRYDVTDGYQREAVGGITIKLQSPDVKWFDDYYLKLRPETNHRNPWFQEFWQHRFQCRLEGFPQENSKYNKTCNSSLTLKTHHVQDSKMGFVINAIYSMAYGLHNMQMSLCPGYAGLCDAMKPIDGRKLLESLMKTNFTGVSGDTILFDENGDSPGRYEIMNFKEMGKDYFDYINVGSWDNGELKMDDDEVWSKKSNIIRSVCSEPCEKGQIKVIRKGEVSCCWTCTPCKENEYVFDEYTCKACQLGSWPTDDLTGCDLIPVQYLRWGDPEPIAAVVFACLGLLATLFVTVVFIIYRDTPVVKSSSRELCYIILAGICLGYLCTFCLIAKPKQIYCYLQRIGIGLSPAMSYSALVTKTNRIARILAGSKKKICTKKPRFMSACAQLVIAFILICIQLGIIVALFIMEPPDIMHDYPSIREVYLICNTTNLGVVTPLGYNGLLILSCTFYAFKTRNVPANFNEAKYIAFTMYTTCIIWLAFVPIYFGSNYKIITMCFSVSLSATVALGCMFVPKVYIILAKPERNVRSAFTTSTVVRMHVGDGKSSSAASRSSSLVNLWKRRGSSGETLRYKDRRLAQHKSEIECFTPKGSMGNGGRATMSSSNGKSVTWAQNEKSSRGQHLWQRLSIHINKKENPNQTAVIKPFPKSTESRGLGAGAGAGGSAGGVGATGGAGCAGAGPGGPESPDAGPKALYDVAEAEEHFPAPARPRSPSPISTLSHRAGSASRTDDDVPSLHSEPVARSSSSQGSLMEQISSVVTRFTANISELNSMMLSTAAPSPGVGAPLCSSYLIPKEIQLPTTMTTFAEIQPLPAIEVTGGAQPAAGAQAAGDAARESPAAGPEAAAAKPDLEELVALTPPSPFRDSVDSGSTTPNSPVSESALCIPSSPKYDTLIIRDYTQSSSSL

[5] = rat; cited from earlier work
[6] = test system: M1; set-up: method as in PMID 37101980; settings: cited from earlier work
[7] = set-up: method as in PMID 31589885; settings: led to termination of trials; attributed to off-target MAO-B; cited from earlier work

Cc1cc(Oc2cncnc2)cc(C(=O)Nc2ccc(F)cn2)n1 [compound 10, N-(5-Fluoropyridin-2-yl)-6-methyl-4-(pyrimidin-5-yloxy)picolinamide]
toxicology finding [1]: pronounced anemia

Cc1cc(O[C@@H]2CCOC2)cc(C(=O)Nc2ccc(F)cn2)n1 [compound 11]
predicted hepatic clearance in rat (CLhep) [2]: 51 mL/min/kg
rat brain:plasma K p,uu [3]: 0.79
IC50 [4]: 0.022 µM
oral bioavailability (%F) [5]: 5.5%

O=C(NCc1ccc(F)cn1)c1cc(Oc2cccnc2)c2sccc2n1 [compound 13]
M1 PAM [6]: > 30 µM

CN1CC(=O)N=C1NC(=O)Nc1cccc(Cl)c1 [fenobam]
adverse effect in clinical trials [7]: psychosis-like symptoms
